Patent US20100130581A1, “COMPOUNDS AND METHODS FOR THE TREATMENT OF PAIN” (THE UNIVERSITY OF QUEENSLAND, priority 2006, published 2010)
“Also recorded” adds a separate entry of the source. Where a SMILES comes first, the peptide text is derived from it. [ ]: non-standard residue; d: D form. ξ: configuration not given here. Dmt = Cc1cc(O)cc(C)c1C[C@H](N)C(=O)O; ξGly(decyl) = CCCCCCCCCCC(N)C(=O)O; ξGly(octyl) = CCCCCCCCC(N)C(=O)O; ξAoc(2) = CCCCCCC(N)C(=O)O

Columns and labels:
[1] = test system: μ- and δ-opioid receptors; assay: Cell based assay of cAMP inhibition in forskolin treated SH-SY5Y cells; settings: for IC50: Efficacy SH-SY5Y cell line; for Inhibit c-AMP (%): SH-SY5Y cell line, normalised to the % of cAMP inhibition seen by native endomorphin-1
Protocol: SH-SY5Y cells endogenously expressing μ- and δ-opioid receptors were cultured (100 μl) in a 96 well-plate and incubated (usually overnight) until 80% confluent. Once cells were ready for assay, Endo-1, Endo-2 and derivatives/analogs were diluted in DMEM culture medium containing 30 μM forskolin. The diluted derivatised endomorphins or derivatised endomorphin analogs were then applied to separate wells for agonist studies and co-incubated for antagonist studies. Cells were incubated with derivatised endomorphins or derivatised endomorphin analogs at 37° C. for 30 minutes, medium was aspirated and cells were lysed using lysis buffer from a cAMP Biotrak EIA kit (Amersham, Buckinghamshire, UK). An anti-cAMP antibody was added to the lysate, and the mixture incubated at 4° C. for 2 hours followed by the addition of a cAMP peroxidase conjugate, and incubated at 4° C. for a further hour. A 3,3′5,5′-tetramethylbenzidine (TMB) substrate provided by the Biotrak EIA kit was then incubated with cell lysate for 1 hour and finally 1 […] was added to facilitate a colour change, which is proportional to the amount of cAMP captured. A cAMP standard curve from 0 to 3200 fmol was also generated concurrently. Plates were then read by a plate reader at 450 nm and compared back to the cAMP standard curve. All data are compared to the maximum cAMP response to forskolin and are represented as the mean+/−standard error of three experiments performed in triplicate. All data are plotted using PRISM program (GraphPad, San Diego, Calif.) (see FIGS. 2a and 2b).

μ-opioid receptor = target: T1, μ-opioid receptor (Homo sapiens, UniProt P35372); assay: Whole cell-based binding assay, displacement of 3H-DAMGO
T1 construct: SH-SY5Y cells endogenously expressing μ- and δ-opioid receptors; endogenous in cells; host or cells: SH-SY5Y cells
T1 sequence (P35372 whole entry): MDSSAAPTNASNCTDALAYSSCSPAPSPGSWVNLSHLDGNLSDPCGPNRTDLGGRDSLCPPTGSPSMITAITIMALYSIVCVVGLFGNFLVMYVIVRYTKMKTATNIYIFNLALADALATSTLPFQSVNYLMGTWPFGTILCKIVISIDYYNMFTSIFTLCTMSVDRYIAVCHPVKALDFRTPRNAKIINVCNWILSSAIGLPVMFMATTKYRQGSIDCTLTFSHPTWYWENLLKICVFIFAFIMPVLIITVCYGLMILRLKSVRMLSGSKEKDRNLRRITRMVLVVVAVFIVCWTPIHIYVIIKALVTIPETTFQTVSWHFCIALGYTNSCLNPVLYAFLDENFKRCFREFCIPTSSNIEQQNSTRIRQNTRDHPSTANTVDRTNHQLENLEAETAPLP
Protocol: Media was removed and cells were washed with PBS before pre-incubation in 300 μL of binding buffer. Binding studies were performed with 100 μL of appropriate concentrations of ^3H-labeled DAMGO (a selective μ-opioid receptor agonist) and 100 μL of competitor or blank in binding buffer at 37° C. for 60 min. Competition binding experiments were performed using […] of ^3H-labelled DAMGO in the absence or presence of increasing concentrations of unlabeled derivatised endomorphins or derivatised endomorphin analogs. A 1 μM excess of unlabelled DAMGO was used to determine non-specific binding. Following incubation, the cells were washed with PBS and recovered from culture plates using 500 μL of […] before transfer to scintillation vials. Liquid scintillation cocktail (Ultima Gold, Packard, Meriden, USA) was added to these vials for counting in a liquid scintillation analyser. Data are expressed as the mean±SEM of % specific binding of triplicate determinations performed on at least three independent plates of cells. Data were plotted using the one-site competition functions of the PRISM program (Graphpad Inc., San Diego, USA) (see FIGS. 1a, 1b and 7).

Plasma stability assay = type: in vitro ADME; settings: male, human, plasma at 37° C.
Protocol: To measure the enzymatic stability of endomorphin-1 analogs in plasma, blood was taken from a healthy volunteer and the blood was centrifuged at 1700 rpm for 30 minutes to remove blood cells. The plasma was placed into a water bath heated at 37° C. and Endomorphin-1 and analog was added to give final concentrations of 0.7 mg/mL. Samples were incubated for varying time periods between 0 and 180 minutes. 50 μL of sample was taken at each time-point and 75 μL of acetonitrile was added to quench any enzyme activity. The samples were then placed on ice and upon completion of the assay, all samples were centrifuged at 9000 rpm for 3 minutes to remove all precipitated plasma proteins. The amount of intact peptide remaining in the supernatent of each sample was determined using RP HPLC by measuring the area under the curve of the peak at the appropriate retention time compared to a standard curve of concentration for each peptide (see FIG. 8).

[2] = test system: gastrointestinal motility; assay: Gut motility study (charcoal meal); type: in vivo, rat; settings: rats
Protocol: Each dose of Compound 8, morphine and vehicle was administered to naïve rats as a 100 μL i.v. bolus injection via an indwelling cannula surgically implanted into the jugular vein at least 12 h prior to dose administration. Rats were anaesthetised with 3% isoflurane: 97% oxygen inhalational anaesthetic. A 1 cm incision was made on the right ventral side of the trachea. Using blunt dissection, the jugular vein was exposed and a small incision made to allow cannula insertion. The cannula was inserted into the vein, its integrity assessed, and tied into place using sterile sutures. The wound was sutured, the cannula was exteriorised at the back of the neck and secured using a metal spring. The rats were kept warm during surgical recovery. Animals were housed singly for the remainder of the experimentation period. Rats were inspected regularly from the time of surgery with respect to exploring behaviour, body weight and water intake. No adverse signs from the surgery were observed.
Charcoal meal was prepared by mixing 10% charcoal and 5% arabic gum in distilled, deionised water. Each rat received a single oral gavage of charcoal meal. Thirty minutes later the animal was euthanised using CO2 asphyxiation and the intestine was removed and measured. The distance from the pyloric sphincter to the caudal end of the charcoal and the total distance of the small intestine to the distal part of the ileum were measured in cm. Gastrointestinal motility was determined as the distance traveled by the charcoal relative to the total length of the small intestine, expressed as a percentage.
Each rat received a single bolus i.v. dose of Compound 8, morphine or vehicle. Animals received either vehicle (n=5), morphine at 1 mg/kg (n=3), 2 mg/kg (n=5), 10 mg/kg (n=5) and 30 mg/kg (n=2) or Compound 8 at 0.3 mg/kg (n=3), 1 mg/kg (n=5), 3 mg/kg (n=4), and 10 mg/kg (n=3). Thirty minutes after i.v. dosing an oral gavage of charcoal meal was administered under light (50%:50% CO2:O2) anaesthesia. Thirty minutes later the animal was euthanised via CO2 asphyxiation and the intestine was removed and the distance moved by the charcoal meal was measured.
The intestine was measured for distance of charcoal meal traveled in the small intestine and total length of small intestine. The % distance of charcoal transit was assessed relative to the total length of the small intestine. % inhibition of gastrointestinal motility by morphine or Compound 8 was calculated by the following equation: [(average % charcoal transit in vehicle rats)−(% distance charcoal transit)×100]/(average % charcoal transit in vehicle rats).

CCI-rats = assay: Pain relief in CCI-rat model of neuropathic pain (von Frey paw withdrawal thresholds); type: in vivo
[3] = test system: homogenate of Caco-2 cells; assay: Enzymatic stability study in homogenized Caco-2 cells; type: in vitro ADME; settings: Caco-2 cell line; graded by number of ♦ (up to 5), key not given
Protocol: Approximately 1×10^5 cells/mL concentration of cells were seeded onto the 96 well plate. […] The media was changed every other day. 21-28 days old cells were used for the experiments. the media was removed from the wells and each well washed with 100 μL 0.2% EDTA solution followed by washing three times with Hanks' balanced salt solution (HBSS) containing 25 mM Hepes (pH 7.4). Finally, 100 μL of this buffer was placed in each well and the plate cooled in ice. The monolayer of cells in each well was then disrupted by 2×1 second pulses with a Sonics Vibracell ultrasonic processor set at an amplitude of 30. The cell debris was then removed by centrifugation of the plate at 2000 rpm for 5 min. 80 μL cell homogenate supernatant of each well was then transferred to a clean 96 well plate, and 20 μL of HBSS-Hepes was added. Three of the wells' contents were set aside and assayed for total protein content using the Lowry assay. The compounds to be tested were dissolved in HBSS-Hepes buffer to a concentration of 200 μM.
This assay was performed at 37° C. […] The stability assay on each compound was conducted in triplicate and the concentrations averaged for each time point.

Compound: CCCCCCC(N)C(=O)N[C@@H](Cc1c(C)cc(O)cc1C)C(=O)N1CCC[C@H]1C(=O)N[C@@H](Cc1c[nH]c2ccccc12)C(=O)N[C@@H](Cc1ccccc1)C(N)=O (single isomer, unassigned) [Compound 7]
- IC50 [1]: 0.189 nM
- Inhibit c-AMP (%) [1]: 153%
- Ki (μ-opioid receptor): 0.071 nM
- half-life at 0.7 mg/mL (Plasma stability assay): 4.55 min

Compound: CCCCCCCCCCC(N)C(=O)N[C@@H](Cc1ccc(O)cc1)C(=O)N1CCC[C@H]1C(=O)N[C@@H](Cc1c[nH]c2ccccc12)C(=O)N[C@@H](Cc1ccccc1)C(N)=O (some centres unmarked) [Compound 2] (H-[ξGly(decyl)]YPWF-NH2)
- Inhibit c-AMP (%) [1]: 89%
- Ki (μ-opioid receptor): 35.5 nM

Compound: CCCCCCCCC(N)C(=O)N[C@@H](Cc1c(C)cc(O)cc1C)C(=O)N1CCC[C@H]1C(=O)N[C@@H](Cc1c[nH]c2ccccc12)C(=O)N[C@@H](Cc1ccccc1)C(N)=O (some centres unmarked) [Compound 8] (H-[ξGly(octyl)][Dmt]PWF-NH2)
- % inhibition of gastrointestinal transit, compared with i.v. morphine ([2]; i.v., 10 mg/kg): did not differ significantly (p>0.05)
- average gradient of log dose vs. % inhibition of gastrointestinal motility curve ([2]; single bolus i.v. doses, FIG. 15): lower than the average gradient for the curve corresponding to morphine
- inhibition of gastrointestinal motility, in words ([2]; single i.v. bolus, 0.3, 1, 3 and 10 mg/kg): inhibited gastrointestinal motility at all doses assessed
- IC50 [1]: 0.0634 nM
- antinociception / baseline PWT responses, in words (CCI-rats; contralateral hindpaw, CCI-rats, i.v., Endo1 1 mg/kg, Compound 8 0.3-3 mg/kg): did not significantly alter baseline PWT responses; also recorded: no significant antinociception in the contralateral hindpaw
- baseline PWT responses, in words (CCI-rats; contralateral hindpaw, drug-naïve CCI-rats, i.v., Endo1 1.6 μmol/kg, Compound 8 1.2 μmol/kg): did not significantly alter baseline PWT responses
- anti-nociceptive effect, in words (CCI-rats; contralateral hindpaw, s.c., 0.3-3 mg/kg, vs vehicle): did not produce a significant, dose-dependent anti-nociceptive effect; also recorded: did not produce dose-dependent anti-nociceptive pain relief
- extent and duration of anti-allodynia compared with Endo1 (CCI-rats; drug-naïve CCI-rats, ipsilateral hindpaw, i.v.): significantly (p<0.05) larger extent and duration of anti-allodynia
- anti-allodynic effect, in words (CCI-rats; ipsilateral hindpaw, CCI-rats, single bolus i.v. doses, vs vehicle): significant, dose-dependent anti-allodynic effect; also recorded: dose-dependent relief of tactile allodynia
- anti-allodynic effect, in words (CCI-rats; ipsilateral hindpaw, CCI-rats, single bolus s.c. doses 0.1-10 mg/kg, vs vehicle): significant, dose-dependent anti-allodynic effect; also recorded: dose-dependent relief of tactile allodynia
- dose-normalised area under the anti-allodynic response versus time curve (AUC), in words (CCI-rats; ipsilateral hindpaw, i.v., CCI-rats, over 3 h): significantly greater (p<0.05) than that of both Endo1 and vehicle
- time of mean peak anti-allodynic response (CCI-rats; ipsilateral hindpaw, i.v., highest dose tested): ~0.5 h
- mean duration of action (CCI-rats; ipsilateral hindpaw, i.v., highest dose tested (3 mg/kg)): > 3 h
- mean duration of action (CCI-rats; ipsilateral hindpaw, i.v., lower doses (0.1 and 0.3 mg/kg)): 2 to 3 h
- time of mean peak anti-allodynic response (CCI-rats; ipsilateral hindpaw, i.v., over doses tested): 0.5 to 1 h
- time of mean peak anti-allodynic response (CCI-rats; ipsilateral hindpaw, s.c., 0.1-10 mg/kg): 0.5 to 1 h
- time of mean peak anti-allodynic response (CCI-rats; ipsilateral hindpaw, s.c., highest dose tested): ~0.5 h
- Ki (μ-opioid receptor): 0.47 nM
- half-life at 0.7 mg/mL (Plasma stability assay): 41.4 min

Compound: CCCCCCCCCCC(N)C(=O)N[C@@H](Cc1c(C)cc(O)cc1C)C(=O)N1CCC[C@H]1C(=O)N[C@@H](Cc1c[nH]c2ccccc12)C(=O)N[C@@H](Cc1ccccc1)C(N)=O (some centres unmarked) [Compound 9] (H-[ξGly(decyl)][Dmt]PWF-NH2)
- IC50 [1]: 0.928 nM
- Ki (μ-opioid receptor): 0.735 nM
- half-life at 0.7 mg/mL (Plasma stability assay): 20.3 min

Compound: CCCCCCC(N)C=N[C@@H](Cc1ccc(O)cc1)C(=O)N1CCC[C@H]1C(=O)N[C@@H](Cc1c[nH]c2ccccc12)C(=O)N[C@@H](Cc1ccccc1)C(N)=O (some centres unmarked) [Compound 10]
- Ki (μ-opioid receptor): 42.4 nM

Compound: CCCCCCC(NC(=O)[C@H](Cc1ccccc1)NC(=O)[C@H](Cc1c[nH]c2ccccc12)NC(=O)[C@@H]1CCCN1C(=O)[C@@H](N)Cc1ccc(O)cc1)C(N)=O (some centres unmarked) [Compound 19] (H-YPWF[ξAoc(2)]-NH2)
- Enzymatic stability 2 h [3]: ♦

Compound: CN1CC[C@]23c4c5ccc(O)c4O[C@H]2[C@@H](O)C=C[C@H]3[C@H]1C5 [morphine, reference compound]
- inhibition of gastrointestinal motility, in words ([2]; single i.v. bolus, 1 and 2 mg/kg): did not significantly (p>0.05) inhibit gastrointestinal motility
- inhibition of gastrointestinal transit, in words ([2]; single i.v. bolus, 10 and 30 mg/kg): significant (p<0.05) inhibition of gastrointestinal transit
